Tests used:
[1] = target: Human immunodeficiency virus type 1 protease (Human immunodeficiency virus 1, UniProt Q72874, N88D); assay: Inhibition of HIV1 protease N88D mutant using Abz-Thr-Ile-Nle-p-nitro-Phe-Gln-Arg-NH2 as substrate after 5 mins by spectrophotometry
[2] = system: Human immunodeficiency virus 1; assay: Resistance index, ratio of Ki for HIV1 protease V82A mutant to Ki for HIV1 wild type protease
[3] = target: Human immunodeficiency virus type 1 protease (Human immunodeficiency virus 1, UniProt Q72874, I47V); assay: Inhibition of HIV1 protease I47V mutant using Abz-Thr-Ile-Nle-p-nitro-Phe-Gln-Arg-NH2 as substrate after 5 mins by spectrophotometry
[4] = target: Human immunodeficiency virus type 1 protease (Human immunodeficiency virus 1, UniProt Q72874, V82A); assay: Inhibition of HIV1 protease V82A mutant using Abz-Thr-Ile-Nle-p-nitro-Phe-Gln-Arg-NH2 as substrate after 5 mins by spectrophotometry
[5] = system: Human immunodeficiency virus 1; assay: Resistance index, ratio of Ki for HIV1 protease L76V mutant to Ki for HIV1 wild type protease
[6] = target: Human immunodeficiency virus type 1 protease (Human immunodeficiency virus 1, UniProt Q72874, L76V); assay: Inhibition of HIV1 protease L76V mutant using Abz-Thr-Ile-Nle-p-nitro-Phe-Gln-Arg-NH2 as substrate after 5 mins by spectrophotometry
[7] = system: Human immunodeficiency virus 1; assay: Resistance index, ratio of Ki for HIV1 protease I47V mutant to Ki for HIV1 wild type protease
[8] = system: Human immunodeficiency virus 1; assay: Resistance index, ratio of Ki for HIV1 protease N88D mutant to Ki for HIV1 wild type protease
Protease = Protease (Human immunodeficiency virus 1, UniProt Q9YQ12); assay: Inhibition of HIV1 wild type protease using Abz-Thr-Ile-Nle-p-nitro-Phe-Gln-Arg-NH2 as substrate after 5 mins by spectrophotometry
Protease, sequence (Q9YQ12 whole entry): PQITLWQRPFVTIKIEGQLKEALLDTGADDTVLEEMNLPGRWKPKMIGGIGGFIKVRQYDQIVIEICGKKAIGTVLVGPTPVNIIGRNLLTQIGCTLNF

SMILES: COc1ccc(S(=O)(=O)N(C[C@H]2CCC(=O)N2)C[C@@H](O)[C@H](Cc2ccccc2)NC(=O)O[C@@H]2C[C@@H]3CCO[C@@H]3C2)cc1
- Ki [1]: 0.92 nM
- Ratio Ki [2]: < 2
- Ki [3]: 0.46 nM
- Ki [4]: 0.65 nM
- Ratio Ki [5]: < 2
- Ki [6]: 0.8 nM
- Ratio Ki [7]: < 2
- Ratio Ki [8]: < 2
- Ki (Protease): 0.44 nM
